Laboratory results as given in US20180148418A1, “AMIDO-SUBSTITUTED CYCLOHEXANE DERIVATIVES” (Bayer Pharma Aktiengesellschaft, priority 2015, published 2018).

Assays:
[1] = tested on: wildtype Wnt signaling cascade; assay: HEK293 TOP assay (Super TopFlash luciferase reporter, Wnt-3a stimulated); type: cell-based; conditions: Homo sapiens, HEK293, 16 h, HEK293 TOP reporter cells, Wnt3a at EC50, 16 hours
Procedure, shortened: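 HEK293 cells stably carrying Super TopFlash (TOP) run in parallel with FOP cells, 10000/well plated 24 h ahead, stimulated with recombinant human Wnt-3a. Compounds tested 50 μM to 15 nM in 3.16-fold steps in CAFTY buffer pH 7.4 with 2 mM Ca^2+ and 0.01% BSA; luciferase read-out.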

[2] = target: T1, TNKS1 (Homo sapiens, UniProt O95271); assay: TNKS1 Assay B (auto-parsylation, [3H]-NAD+ SPA); type: biochemical; conditions: 6 nM TNKS1, auto-parsylation, over night at room temperature
T1 construct: purchased BPS Bioscience, San Diego, USA 80579 (TNKS1 Histone Ribosylation Assay Kit)
T1 sequence (O95271 1-1327): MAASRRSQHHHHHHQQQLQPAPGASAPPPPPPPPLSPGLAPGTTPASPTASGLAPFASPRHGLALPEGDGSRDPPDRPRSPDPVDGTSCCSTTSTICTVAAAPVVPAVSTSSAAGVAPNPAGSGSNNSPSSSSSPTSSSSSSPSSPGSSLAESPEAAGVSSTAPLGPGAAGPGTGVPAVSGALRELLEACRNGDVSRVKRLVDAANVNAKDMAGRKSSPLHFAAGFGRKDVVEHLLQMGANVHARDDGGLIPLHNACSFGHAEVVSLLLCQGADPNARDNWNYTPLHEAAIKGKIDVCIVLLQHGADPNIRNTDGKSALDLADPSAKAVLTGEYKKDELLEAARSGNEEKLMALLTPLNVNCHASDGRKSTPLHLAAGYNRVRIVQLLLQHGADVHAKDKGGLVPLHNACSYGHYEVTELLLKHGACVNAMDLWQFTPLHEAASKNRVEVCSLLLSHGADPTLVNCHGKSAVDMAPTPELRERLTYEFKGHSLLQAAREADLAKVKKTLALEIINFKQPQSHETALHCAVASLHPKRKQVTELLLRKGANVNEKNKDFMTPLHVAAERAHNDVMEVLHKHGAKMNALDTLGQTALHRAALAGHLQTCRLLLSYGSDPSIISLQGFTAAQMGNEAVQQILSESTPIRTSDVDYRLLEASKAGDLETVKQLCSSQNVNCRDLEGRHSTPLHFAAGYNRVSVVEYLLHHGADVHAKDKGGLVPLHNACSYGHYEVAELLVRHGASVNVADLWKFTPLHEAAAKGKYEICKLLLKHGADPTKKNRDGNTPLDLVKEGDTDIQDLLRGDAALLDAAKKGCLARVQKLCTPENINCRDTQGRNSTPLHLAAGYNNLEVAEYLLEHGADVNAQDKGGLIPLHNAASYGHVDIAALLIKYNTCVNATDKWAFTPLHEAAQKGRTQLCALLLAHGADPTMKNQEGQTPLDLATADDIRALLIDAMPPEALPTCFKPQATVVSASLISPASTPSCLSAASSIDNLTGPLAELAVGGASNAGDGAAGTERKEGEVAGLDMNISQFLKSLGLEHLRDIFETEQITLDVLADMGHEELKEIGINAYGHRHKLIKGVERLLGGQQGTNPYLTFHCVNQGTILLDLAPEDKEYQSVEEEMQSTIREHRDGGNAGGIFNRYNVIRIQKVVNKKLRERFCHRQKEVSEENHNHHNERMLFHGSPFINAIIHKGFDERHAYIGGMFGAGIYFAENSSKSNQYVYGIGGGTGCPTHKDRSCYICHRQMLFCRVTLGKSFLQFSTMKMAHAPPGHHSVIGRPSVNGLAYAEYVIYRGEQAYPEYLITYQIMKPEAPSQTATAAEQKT

IC50 [1]	IC50 [2]	Structure (SMILES)
370 nM	84 nM	CC(C)(O)CNC(=O)c1nc[nH]c1C(=O)N[C@H]1CC[C@H](C(=O)Nc2ccc(F)cc2Cl)CC1 [Example 75, N^5-{trans-4-[(2-chloro-4-fluorophenyl)carbamoyl]cyclohexyl}-N^4-(2-hydroxy-2-methylpropyl)-1H-imidazole-4,5-dicarboxamide]
230 nM	170 nM	COCC(C)NC(=O)c1nc[nH]c1C(=O)N[C@H]1CC[C@H](C(=O)Nc2c(F)cc(F)cc2Cl)CC1 (stereo partly drawn) [Example 65, N^5-{trans-4-[(2-chloro-4,6-difluorophenyl)carbamoyl]cyclohexyl}-N^4-(1-methoxypropan-2-yl)-1H-imidazole-4,5-dicarboxamide]
120 nM	60 nM	COC(C)CNC(=O)c1nc[nH]c1C(=O)N[C@H]1CC[C@H](C(=O)Nc2c(F)cc(F)cc2Cl)CC1 (stereo partly drawn) [Example 68, N^5-{trans-4-[(2-chloro-4,6-difluorophenyl)carbamoyl]cyclohexyl}-N^4-(2-methoxypropyl)-1H-imidazole-4,5-dicarboxamide]
60 nM	27 nM	COCC(C)NC(=O)c1nc[nH]c1C(=O)N[C@H]1CC[C@H](C(=O)Nc2cc(F)c(F)cc2Cl)CC1 (stereo partly drawn) [Example 87, N^5-{trans-4-[(2-chloro-4,5-difluorophenyl)carbamoyl]cyclohexyl}-N^4-(1-methoxypropan-2-yl)-1H-imidazole-4,5-dicarboxamide]
110 nM	21 nM	O=C(N[C@H]1CC[C@H](C(=O)Nc2ccc(F)cc2Cl)CC1)c1[nH]cnc1C(=O)N1CCC1 [Example 23, 4-(azetidin-1-ylcarbonyl)-N-{trans-4-[(2-chloro-4-fluorophenyl)carbamoyl]cyclohexyl}-1H-imidazole-5-carboxamide]
6700 nM	150 nM	COC(=O)c1cc(C)nc2c(C(=O)N[C@H]3CC[C@H](C(=O)Nc4c(F)cc(F)cc4Cl)CC3)cnn12 [Example 351, methyl 3-({trans-4-[(2-chloro-4,6-difluorophenyl)carbamoyl]cyclohexyl}carbamoyl)-5-methylpyrazolo[1,5-a]pyrimidine-7-carboxylate]
140 nM	62 nM	CN(C)C1CN(C(=O)c2nc[nH]c2C(=O)N[C@H]2CC[C@H](C(=O)Nc3ccc(F)cc3Cl)CC2)C1 [Example 26, N-{trans-4-[(2-chloro-4-fluorophenyl)carbamoyl]cyclohexyl}-4-{[3-(dimethylamino)azetidin-1-yl]carbonyl}-1H-imidazole-5-carboxamide]
170 nM	57 nM	O=C(NCC1CCCO1)c1nc[nH]c1C(=O)N[C@H]1CC[C@H](C(=O)Nc2c(F)cc(F)cc2Cl)CC1 (stereo partly drawn) [Example 69, N^5-{trans-4-[(2-chloro-4,6-difluorophenyl)carbamoyl]cyclohexyl}-N^4-(tetrahydrofuran-2-ylmethyl)-1H-imidazole-4,5-dicarboxamide]
1900 nM	3100 nM	COC(C)(C)CNC(=O)c1nc[nH]c1C(=O)N[C@H]1CC[C@H](C(=O)Nc2cc(N3CCOCC3)ccc2Cl)CC1 [Example 90, N^5-(trans-4-{[2-chloro-5-(morpholin-4-yl)phenyl]carbamoyl}cyclohexyl)-N^4-(2-methoxy-2-methylpropyl)-1H-imidazole-4,5-dicarboxamide]
620 nM	> 10000 nM	Cc1cc(C(C)(C)C)n2ncc(C(=O)N[C@H]3CC[C@H](C(=O)Nc4ccc(F)cc4Cl)CC3)c2n1 [Example 60, 7-tert-butyl-N-{trans-4-[(2-chloro-4-fluorophenyl)carbamoyl]cyclohexyl}-5-methylpyrazolo[1,5-a]pyrimidine-3-carboxamide]
21000 nM	> 10000 nM	CNC(=O)c1[nH]cnc1C(=O)NC1CCC(C(=O)Nc2ccc(F)cc2Cl)CC1C (single isomer, unassigned) [Example 41, N^4-{4-[(2-chloro-4-fluorophenyl)carbamoyl]-2-methylcyclohexyl}-N^5-methyl-1H-imidazole-4,5-dicarboxamide]
44000 nM	> 10000 nM	CNC(=O)c1ocnc1C(=O)N[C@H]1CC[C@H](C(=O)Nc2ccc(F)cc2Cl)CC1 [Example 30]
400 nM	150 nM	CNc1ccc2ncc(C(=O)N[C@H]3CC[C@H](C(=O)Nc4ccc(F)cc4Cl)CC3)n2n1 [Example 53, N-{trans-4-[(2-chloro-4-fluorophenyl)carbamoyl]cyclohexyl}-6-(methylamino)imidazo[1,2-b]pyridazine-3-carboxamide]
25000 nM	> 10000 nM	CNC(=O)c1[nH]cnc1C(=O)NC1CCC(F)(C(=O)Nc2ccc(F)cc2Cl)CC1 (single isomer, unassigned) [Example 366, N^4-{4-[(2-chloro-4-fluorophenyl)carbamoyl]-4-fluorocyclohexyl}-N^5-methyl-1H-imidazole-4,5-dicarboxamide (single isomer)]
1300 nM	950 nM	Nc1nn2cccnc2c1C(=O)N[C@H]1CC[C@H](C(=O)Nc2ccc(F)cc2Cl)CC1 [Example 59, 2-amino-N-{trans-4-[(2-chloro-4-fluorophenyl)carbamoyl]cyclohexyl}pyrazolo[1,5-a]pyrimidine-3-carboxamide]
28 nM	130 nM	Cc1cc(N2CCC[C@]3(CC[C@@H](NC(=O)c4cnc5cccnn45)CC3)C2=O)c(Cl)cc1F [Example 301, N-[(trans)-2-(2-chloro-4-fluoro-5-methylphenyl)-1-oxo-2-azaspiro[5.5]undec-9-yl]imidazo[1,2-b]pyridazine-3-carboxamide]
0.9 nM	7.1 nM	Cc1cc(C)n2ncc(C(=O)N[C@H]3CC[C@@]4(CCN(c5cc(F)c(F)cc5Cl)C4=O)CC3)c2n1 [Example 299, N-[(trans)-2-(2-chloro-4,5-difluorophenyl)-1-oxo-2-azaspiro[4.5]dec-8-yl]-5,7-dimethylpyrazolo[1,5-a]pyrimidine-3-carboxamide]
42 nM	170 nM	Cc1cc(C)n2ncc(C(=O)N[C@H]3CC[C@@]4(CCCN(c5cc(C)c(F)cc5Cl)C4=O)CC3)c2n1 [Example 302, N-[(trans)-2-(2-chloro-4-fluoro-5-methylphenyl)-1-oxo-2-azaspiro[5.5]undec-9-yl]-5,7-dimethylpyrazolo[1,5-a]pyrimidine-3-carboxamide]
81 nM	48 nM	Cc1cc(C)n2ncc(C(=O)N[C@H]3CC[C@H](C(=O)Nc4ccc(F)cc4Cl)CC3)c2n1 [Example 44, N-{trans-4-[(2-chloro-4-fluorophenyl)carbamoyl]cyclohexyl}-5,7-dimethylpyrazolo[1,5-a]pyrimidine-3-carboxamide]
100 nM	650 nM	CC(C)(O)CNC(=O)c1nc[nH]c1C(=O)N[C@H]1CC[C@@]2(CCN(c3cccc(Cl)c3)C2=O)CC1 [Example 284, N^5-[(trans)-2-(3-chlorophenyl)-1-oxo-2-azaspiro[4.5]dec-8-yl]-N^4-(2-hydroxy-2-methylpropyl)-1H-imidazole-4,5-dicarboxamide]
52 nM	73 nM	CNC(=O)c1nc[nH]c1C(=O)N[C@H]1CC[C@H](C(=O)Nc2ccc(F)cc2Cl)CC1 [Example 1, N^5-{trans-4-[(2-chloro-4-fluorophenyl)carbamoyl]cyclohexyl}-N^4-methyl-1H-imidazole-4,5-dicarboxamide]
130 nM	75 nM	O=C(NCC1CCCO1)c1nc[nH]c1C(=O)N[C@H]1CC[C@H](C(=O)Nc2ccc(F)cc2Cl)CC1 (stereo partly drawn) [Example 78, N^5-{trans-4-[(2-chloro-4-fluorophenyl)carbamoyl]cyclohexyl}-N^4-(tetrahydrofuran-2-ylmethyl)-1H-imidazole-4,5-dicarboxamide]
